Data set [1] concerns serum N-terminal propeptide of type 1 collagen (P1NP). The data set can be described thus: Serum P1NP (bone formation) after s.c. injection, Example 3. The format is in vivo, human. Conditions: for time of maximum effect on bone formation (P1NP): GIP 200 μg or GLP-2 800 μg s.c. As for the experimental part:
(§1) Eight healthy young men were enrolled. The study included three study days in randomised order (with a minimum of 1 week washout between study days) where human GIP (200 μg), human GLP-2 (800 μg), or placebo was injected subcutaneously. Participants arrived in the morning (fasted overnight) and received the injection around 8.30 a.m. Blood samples were collected before (−25 and −10 min) and every 30 minutes after injection (30, 60, 90, 120, 180 and 240 min). After last participant's last visit, bone resorption was determined by measurements of serum C-terminal cross-linking telopeptide of type I collagen (CTX; IDS Immunodiagnostic Systems GmbH, Frankfurt am Main, Germany)
(§2) Eight healthy young men were enrolled, and the study was conducted as outlined in Example 1. After last participant's last visit, bone resorption was determined by measurements of CTX (IDS Immunodiagnostic Systems GmbH, Frankfurt am Main, Germany) and bone formation was determined by measurements of serum N-terminal propeptide of type 1 collagen (P1NP; IDS Immunodiagnostic Systems GmbH, Frankfurt am Main, Germany). In addition, serum concentration of parathyroid hormone (PTH; IDS Immunodiagnostic Systems GmbH, Frankfurt am Main, Germany) was measured.

Data set [2] deals with parathyroid hormone (PTH). Kind of data set: Serum PTH after s.c. injection alone or in combination, Example 4. It counts as in vivo, human. Conditions: for time of maximum effect on PTH: GIP 100 μg, GLP-2 400 μg or both s.c. As for the experimental part:
Ten healthy young men are enrolled and the study includes four study days in randomised order (with a minimum of 1 week washout between study days) where human GIP (100 μg), human GLP-2 (400 μg), GIP+GLP-2 (100 μg+400 μg), or placebo are injected subcutaneously. The participants arrive in the morning (fasted overnight) and receive the injection around 8.30 a.m. […] After last participant's last visit, samples are analysed for concentrations of bone resorption markers (CTX).
as §2, with “Ten” for “Eight”, “are enrolled” for “were enrolled,”, “2.” for “1.”, “measured. The doses of GIP and GLP-2 were selected as discussed in example 2.” for “measured.”

Data set [3] relates to serum N-terminal propeptide of type 1 collagen (P1NP). The data set can be described thus: Serum P1NP (bone formation) after s.c. injection alone or in combination, Example 4. The format is in vivo, human. Conditions: for time of maximum effect on bone formation (P1NP): GIP 100 μg or GLP-2 400 μg s.c. As for the experimental part:
(§3) Ten healthy young men are enrolled and the study includes four study days in randomised order (with a minimum of 1 week washout between study days) where human GIP (100 μg), human GLP-2 (400 μg), GIP+GLP-2 (100 μg+400 μg), or placebo are injected subcutaneously. The participants arrive in the morning (fasted overnight) and receive the injection around 8.30 a.m. Blood samples are collected before (−25 and −10) and every 30 minutes after injection (30, 60, 90, 120, 180 and 240 min) injection. After last participant's last visit, samples are analysed for concentrations of bone resorption markers (CTX).
as §2, with “Ten” for “Eight”, “are enrolled” for “were enrolled,”, “2.” for “1.”, “measured. The doses of GIP and GLP-2 were selected as discussed in example 2.” for “measured.”

Data set [4] deals with serum C-terminal cross-linking telopeptide of type I collagen (CTX). Kind of data set: Serum CTX (bone resorption) after s.c. injection in healthy young men, Example 1/3 study. The format is in vivo, human. Conditions: for reduction in bone resorption (CTX): 200 μg GIP and 800 μg GLP-2, Example 1 as summarised in Example 2; for time of maximum effect on bone resorption (CTX): GIP 200 μg or GLP-2 800 μg s.c. The method, then: as §1, §2

Data set [5] has as its system parathyroid hormone (PTH). Kind of data set: Serum PTH after s.c. injection, Example 3. The following applies: for time of maximum effect on PTH: GIP 200 μg or GLP-2 800 μg s.c.; for PTH level at maximum effect: 15 min after injection. It counts as in vivo, human. The method, then: Eight healthy young men were enrolled. The study included three study days in randomised order (with a minimum of 1 week washout between study days) where human GIP (200 μg), human GLP-2 (800 μg), or placebo was injected subcutaneously. Participants arrived in the morning (fasted overnight) and received the injection around 8.30 a.m. […] After last participant's last visit, bone resorption was determined by measurements of serum C-terminal cross-linking telopeptide of type I collagen (CTX; IDS Immunodiagnostic Systems GmbH, Frankfurt am Main, Germany)
as §2

Data set [6] has as its system CTX. The data set can be described thus: CTX (bone resorption) after s.c. injection alone or in combination, Example 2/4 study. It counts as in vivo, human. The following applies: Example 4; for time of maximum effect on bone resorption (CTX): GIP 100 μg, GLP-2 400 μg or both s.c. The method, then: as §3
as §2, with “Ten” for “Eight”, “are enrolled” for “were enrolled,”, “2.” for “1.”, “measured. The doses of GIP and GLP-2 were selected as discussed in example 2.” for “measured.”

Data set [7] concerns serum C-terminal cross-linking telopeptide of type I collagen (CTX). The data set can be described thus: Nocturnal CTX (bone resorption) in postmenopausal women, Example 6. The format is in vivo, human. As for the experimental part: Ten healthy postmenopausal women are enrolled and the study includes four study days in randomised order (with a minimum of 1 week washout between study days) where human GIP (hGIP 100 μg), human GLP-2 ([…]), hGIP+hGLP-2 (100 μg+400 μg), or placebo, are injected subcutaneously. The participants arrive in the evening around 9 p.m. (fasted from ˜7 p.m.) and receive the injections at 10 p.m. Blood samples are collected before (−10 and −5 min) and after injection (7, 15, 30, 45, 60, 90, 120, 180 and 240 min). Bone resorption was determined by measurements of serum C-terminal cross-linking telopeptide of type I collagen (CTX; IDS Immunodiagnostic Systems GmbH, Frankfurt am Main, Germany). The doses of GIP and GLP-2 were selected as discussed in example 2.

For data set [8] the following is noted: in vivo; cited from earlier work.
Data set [9] deals with serum C-terminal cross-linking telopeptide of type I collagen (CTX). The data set can be described thus: Serum CTX (bone resorption) after s.c. GLP-1, Example 5. It counts as in vivo, human. The following applies: GLP-1 1.5 nmol/kg s.c. As for the experimental part:
Eight healthy young people were enrolled (five male, three female). […] Participants arrived in the morning after an overnight fast. Blood samples were collected before (−15 and 0 min) and after injection (15, 30, 45, 60, 90 and 120 min). After last participant's last visit, bone resorption was determined by measurements of serum C-terminal cross-linking telopeptide of type I collagen (CTX; IDS Immunodiagnostic Systems GmbH, Frankfurt am Main, Germany).

Take “HADGSFSDEMNTILDNLAARDFINWLIQTKITD [GLP-2]”: the “time of maximum effect on bone formation (P1NP)” value in data set [1] came out at 45 min; in data set [3], 60 min. The “bone formation (P1NP) at maximum effect (reduction)” value was 88.1±8.5 % of base line in [1] (GLP-2 800 μg s.c., 45 min after injection) and 88.2±9.4 % of base line in data set [3] (GLP-2 400 μg s.c., 60 min after injection). For the same substance, the “time of maximum effect on PTH” value in data set [2] is listed as 45 min; in data set [5], 15 min. Besides, the “PTH level at maximum effect” value in data set [2] (GLP-2 400 μg s.c., 45 min after injection) was 65.7±16.8 % of basal levels; in data set [5] (GLP-2 800 μg s.c.), 71.9±13.9 % of basal levels. For the same substance, the “reduction in bone resorption (CTX)” value in data set [4] is roughly 50%. In addition, the “time of maximum effect on bone resorption (CTX)” value (shortened to “time of maximum effect … (CTX)”) in [4] (Example 1) stood at 180 min; in data set [4] (Example 3), 180 min; in data set [6], 210 min. The “bone resorption (CTX) at maximum effect” value in [4] (GLP-2 800 μg s.c., 180 min after administration, Example 3 (completed study)) is reported as 60.5±14.1 % of base line; in data set [4] (GLP-2 800 μg s.c., 180 min after administration, healthy young men, Example 1), 63.4±3.4 % of base line; in data set [6] (GLP-2 400 μg s.c. alone, 210 min after injection), 58.2±16.0 % of basal. Also, the “nocturnal bone resorption (CTX) compared to placebo” value in [7] (GLP-2 400 μg s.c. at 10 p.m.) was “reduced bone resorption during the entire study period”.

For “GLP-1: human glucagon-like peptide-1; which form (SEQ ID NO: 7, 8 or 9) was injected is not stated”, in data set [8], the fasting plasma levels is 0 to 15 pmol/L. Besides, the “time of maximum effect … (CTX)” value in [9] came to 120 min. Also, in data set [9] (120 min after injection, healthy young people), the “bone resorption (CTX) at maximum effect” value is 74.4±3.7 % of base line.

Turning to “YAEGTFISDYSIAMDKIHQQDFVNWLLAQKGKKNDWKHNITQ [GIP]”, the “time of maximum effect on bone formation (P1NP)” value in [1] and in data set [3] was 30 min throughout. In addition, the “bone formation (P1NP) at maximum effect (increase)” value is 115.1±6.2 % of base line in [1] (GIP 200 μg s.c., 30 min after injection) and 111.1±9.0 % of base line in data set [3] (GIP 100 μg s.c., 30 min after injection). Also, the “PTH level at maximum effect” value is given as 73.0±19.2 % of basal levels in [2] (GIP 100 μg s.c., 15 min after injection) and 71.2±11.4 % of basal levels in data set [5] (GIP 200 μg s.c.). In addition, the “time of maximum effect on PTH” value in data set [2] and in data set [5] was 15 min in each case. Also, in data set [4], the “reduction in bone resorption (CTX)” value is on record as roughly 50%. For the same substance, the “time of maximum effect … (CTX)” value in data set [4] (Example 1), in data set [4] (Example 3) and in data set [6] was 90 min throughout. Moreover, the “bone resorption (CTX) at maximum effect” value in data set [4] (GIP 200 μg s.c., 90 min after injection, Example 3 (completed study)) is on record as 55.3±17.9 % of base line; in data set [4] (GIP 200 μg s.c., 90 min after injection, healthy young men, Example 1), 56.2±11.2 % of base line; in data set [6] (GIP 100 μg s.c. alone, 90 min after administration), 57.6±17.9 % of basal. For the same substance, in data set [7] (GIP 100 μg s.c. at 10 p.m.), the “nocturnal bone resorption (CTX) compared to placebo” value is “reduced bone resorption was seen from 30 min to 120 min”.

The values above are taken from patent publication US20200261543A1, “COMBINATION THERAPY FOR TREATMENT OF BONE DISORDERS” (University of Copenhagen, priority 2017, published 2020).
